Measurements: US20060159617A1, “Small technetium-99m and rhenium labeled agents and methods for imaging tissues, organs and tumors” (priority 2002, published 2006)

Tests used:
[1] = system: B16 melanoma; experiment: In-vivo tumor uptake / biodistribution, B16 melanoma-bearing mice; conditions: 1 h, B16/F0 melanoma mice
Description: (§1) To study the tumor uptake of radiolabeled metal complexes, in vivo, biodistribution experiments at 1 h after their administration were carried out in C57B16 male mice with palpable B16 melanoma nodules and male nude mice bearing DU145 human prostate carcinoma in the hind limb.
(§2) The biodistribution data including tumor/nontumor (T/NT) ratios for selected organs are summarized in Table 1 and 2 as percentage injected dose per gram (% ID/g).

[2] = system: DU145 human prostate carcinoma; experiment: In-vivo tumor uptake / biodistribution, DU145 tumor-bearing nude mice; conditions: 1 h
Description: as §1, §2

[3] = biological target: T1, σ2 receptor (Rattus norvegicus, UniProt Q5U3Y7); experiment: σ2 receptor competition binding assay with [3H]-DTG, σ1 masked; conditions: apparent Ki, rat liver membranes
T1 construct: Rat liver membranes were prepared from male Sprague-Dawley rat livers as previously described; from tissue; host or cells: male Sprague-Dawley rat liver membranes
T1 sequence (Q5U3Y7 1-176): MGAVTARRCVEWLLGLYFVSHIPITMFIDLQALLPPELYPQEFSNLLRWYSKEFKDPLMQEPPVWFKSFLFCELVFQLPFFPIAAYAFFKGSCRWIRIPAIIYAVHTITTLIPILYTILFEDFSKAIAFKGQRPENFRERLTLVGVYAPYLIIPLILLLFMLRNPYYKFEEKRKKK
Description: Rat liver membranes were prepared from male Sprague-Dawley rat livers as previously described (Eur. J. Pharmacol.—Mol. Pharmacol. Sect. 1994, 268, 9-18). The in vitro σ2 receptor binding affinities of rhenium coordinated complexes were determined in a competition assay using rat livers and [^3H]-DTG (31 Ci/mmol, NEN Life Science Inc., Cambridge, Mass.) as radioligand in the presence of 10 μM 1-pyrrolidinylethyl 3,4-dichlorophenylacetate oxalate (ACT915 oxalate) to mask σ1 receptors (Bioorg. & Med. Chem. Lett. 2000, 10, 17-18). Competition assays were performed with twelve concentrations of the nonradioactive rhenium complexes ranging from 1×10^−10 to 1×10^−3 and protein samples (0.15 mg of membrane protein) in a total volume of 0.25 mL of Tris-HCl (50 mM, pH 8.0) for 120 min at 25° C. All other manipulations and data analysis were performed as described vide supra for the σ1-receptor assays.

[4] = biological target: T2, σ1 receptor (Cavia porcellus, UniProt Q60492); experiment: Sigma-1 receptor competition binding assay with [3H]-(+)-pentazocine; set-up: species or system guinea pig; conditions: apparent Ki (Cheng-Prusoff), brain membranes
T2 construct: The membranes were prepared from guinea pig brain (minus cerebellum) as described above; from tissue; host or cells: guinea pig brain (minus cerebellum) membranes
Description: The in vitro σ1 receptor binding affinities of rhenium coordinated complexes were determined in a competition assay using […] and high-affinity σ1 ligand [3H]-(+)-pentazocine (28 Ci/mmol, NEN Life Science Inc., Cambridge, Mass.). See, Mol. Neuropharmacol. 1993, 3, 117-126.
The membranes were prepared from guinea pig brain (minus cerebellum) as described above and stored at −70 ° C. Twelve concentrations of the nonradioactive rhenium complexes ranging from 1×10^−11 to 1×10^−3 and protein samples (0.15 mg of membrane protein) were incubated with […] [3H]-(+)-pentazocine in a total volume of 0.25 mL of Tris-HCl (50 mM, pH 8.0). Incubations were carried out for 120 min at 25° C. All assays were terminated by dilution with 5 mL of ice-cold Tris-HCl (10 mM), pH 8.0, and solution were filtered through glass-fiber filters (Whatman GF/F; presoaked in 0.5% polyethyleneimine for 30 min at 25° C.). Filters were then washed three times with 5 mL of ice-cold Tris-HCl (50 mM, pH 8.0), and counted in Hionic-Fluor cocktail (Packard, Groningen, the Netherlands). The corresponding IC50 values were determined with Origin 6.0 software (OriginLab, Northampton, Mass.) and were used for the calculation of the apparent Ki values with the Cheng-Prusoff equation. See, Biochem. Pharmacol. 1973, 22, 3099-3108.

[5] = Determination of lipophilicity and pKa values by HPLC; type: physicochemical
Description: The lipophilicity and pKa values of all complexes were determined using HPLC methods described previously (Stylli, C.; Theobald, A. E. Determination of Ionization Constants of Radiopharmaceuticals in Mixed Solvents by HPLC. Appl. Radiat. Isot., 1987, 38, 701-708; Johannsen, B.; Scheunemann, M.; Spies, H.; Brust, P.; Wober, J.; Syhre, R.; Pietzsch, H.-J. Technetium(V) and Rhenium(V) Complexes for 5-HT2A Serotonin Receptor Binding: Structure-Affinity Considerations. Nucl. Med. Biol., 1996, 23, 429-438; and Johannsen, B.; Berger, R.; Brust, P.; Pietzsch, H.-J.; Scheunemann, M.; Seifert, S.; Spies, H.; Syhre, R. Structural Modification of Receptor-Binding Technetium-99m Complexes in Order to Improve Brain Uptake. Eur. J. Nucl. Med. 1997, 24, 316-319). […] The mobile phase was acetonitrile:phosphate buffer (0.01 M), 3:1, v/v, with the aqueous buffer adjusted to the desired pH between 3 and 11. The capacity factor (k′) was calculated for each determination (Braumann, T.; Grimme, L. H. Determination of Hydrophobic Parameters for Pyridazinone Herbicides by Liquid-Liquid Partition and Reversed-Phase High-Performance Liquid Chromatography. J. Chromatogr. 1981, 206, 7-15; El Tayer, N.; van der Waterbeemd, H.; Testa, B. Lipophilicity Measurements of Protonated Basic Compounds by Reversed-Phase High-Performance Liquid Chromatography. II. Procedure for the Determination of a Lipophilic Index Measured by Reversed-Phase High Performance Liquid Chromatography. J. Chromatogr. 1985, 320, 305-312; and Minick, D. J.; Frenz, J. H.; Patrick, M. A.; Brent, D. A. A Comprehensive Method for Determining Hydrophobicity Constants by Reversed-Phase High-Performance Liquid Chromatography. J. Med. Chem., 1988, 31, 1923-1933) and the partition coefficient at a given pH (D or logD) were calculated from the equation: log D=a log k′+b where the parameters a and b are predetermined using standard amines. The fitted points of inflection from the sigmoidal DHPLC/pH profiles permit calculation of the pKHPLC(Stylli, C.; Theobald, A. E. Determination of Ionization Constants of Radiopharmaceuticals in Mixed Solvents by HPLC. Appl. Radiat. Isot., 1987, 38, 701-708). The aqueous ionization constants pKa were calculated from the pKHPLC values after correction with a predetermined correction factor obtained using standard amine compounds. Log P values of the neutral complexes were estimated from the respective upper plateau of the sigmoidal log D/pH curve in the alkaline range.

[6] = biological target: α1 receptor; experiment: Alpha-1 receptor competition binding assay with [3H]-Prazosin; conditions: apparent Ki, rat frontal cortex
Description: The in vitro α1 receptor binding affinities of rhenium coordinated complexes were determined in a competition assay using rat frontal cortex and high-affinity α1 ligand [^3H]-Prazosin (80 Ci/mmol, NEN Life Science Inc., Cambridge, Mass.). See, Eur. J. Nucl. Med. 2002, 29, 82-87.
(§3) The frontal cortex of rat brain was prepared as described above and store at −70° C. until used in the binding assays. Ten concentrations of the nonradioactive rhenium complexes ranging from 1×10^−10 to 1×10^−3 and protein samples (0.15 mg of membrane protein) were incubated with 1.5 nM [^3H]-Prazosin in a total volume of 0.25 mL of Tris-HCl (50 mM, pH 7.4, 10 mM MgSO4). Incubations were carried out for 60 min at 25° C. All assays were terminated by dilution with 5 mL of ice-cold Tris-HCl (10 mM), pH 7.4, and solution were filtered through glass-fiber filters (Whatman GF/F; presoaked in 0.5% polyethyleneimine for 30 min at 25° C.). Filters were then washed three times with 5 mL of ice-cold Tris-HCl (50 mM, pH 7.4), and counted in Hionic-Fluor cocktail (Packard, Groningen, the Netherlands). The corresponding IC50 values were determined with Origin 6.0 software (OriginLab, Northampton, Mass.) and were used for the calculation of the apparent Ki values with the Cheng-Prusoff equation. See, Biocheni. Pharmacol. 1973, 22, 3099-3108.

[7] = biological target: T3, 5HT1A receptor (Rattus norvegicus, UniProt P19327); experiment: 5HT1A receptor competition binding assay with [3H]-8-OH-DPAT; conditions: apparent Ki, rat hippocampus
T3 construct: The brains were rapidly removed, and hippocampus, frontal cortex, hypothalamus, and striatum were hand-dissected on ice; from tissue; host or cells: male Sprague-Dawley rat hippocampus membranes
T3 sequence (P19327 1-422): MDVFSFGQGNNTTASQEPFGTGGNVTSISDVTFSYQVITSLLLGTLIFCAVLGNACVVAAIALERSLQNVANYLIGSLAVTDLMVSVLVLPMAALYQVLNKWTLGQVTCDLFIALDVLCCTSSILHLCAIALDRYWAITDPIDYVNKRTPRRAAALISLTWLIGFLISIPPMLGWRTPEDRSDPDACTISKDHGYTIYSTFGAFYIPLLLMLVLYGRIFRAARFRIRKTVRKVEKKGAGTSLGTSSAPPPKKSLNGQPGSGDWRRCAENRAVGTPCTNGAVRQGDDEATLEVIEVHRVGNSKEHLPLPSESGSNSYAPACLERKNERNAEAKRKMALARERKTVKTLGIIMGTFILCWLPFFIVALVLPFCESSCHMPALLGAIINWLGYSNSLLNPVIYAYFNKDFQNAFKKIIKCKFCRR
Description: The in vitro 5HT1A binding affinities of rhenium coordinated complexes were determined in a competition assay using rat hippocampus and high-affinity 5HT1A-ligand [^3H]-8-OH-DPAT (135 Ci/mmol, NEN Life Science Inc., Cambridge, Mass.). See, Brain Res. 1995, 673, 217-225.
Male Sprague-Dawley rats (weighing 150-170 g) were sacrificed using anesthesia agent isoflurane. The brains were rapidly removed, and hippocampus, frontal cortex, hypothalamus, and striatum were hand-dissected on ice and stored at −70° C. Tissue was thawed at room temperature and homogenized using a Brinkmann Polytron tissue disrupter in 50 volumes (wt/vol) of ice-cold 50 mM Tris-HCl buffer (pH 7.4). The suspension was centrifuged twice at 27,000 g for 20 min at 4° C. The membrane pellets were resuspended in 50 volumes of (wt/vol) Tris-HCl buffer and incubated at 37° C. for 20 min in a water bath, before a final centrifugation step (27,000 g; 20 min; 4° C.). The final tissue pellets were stored at −70° C. until assayed.
as §3, with “Twelve” for “The frontal cortex of rat brain was prepared as described above and store at −70° C. until used in the binding assays. Ten”, “1×10^−11” for “1×10^−10”, “1×10^−4” for “1×10^−3”, “[^3H]-8-OH-DPAT” for “[^3H]-Prazosin”, “Biochem.” for “Biocheni.”

T2 sequence (Q60492 whole entry): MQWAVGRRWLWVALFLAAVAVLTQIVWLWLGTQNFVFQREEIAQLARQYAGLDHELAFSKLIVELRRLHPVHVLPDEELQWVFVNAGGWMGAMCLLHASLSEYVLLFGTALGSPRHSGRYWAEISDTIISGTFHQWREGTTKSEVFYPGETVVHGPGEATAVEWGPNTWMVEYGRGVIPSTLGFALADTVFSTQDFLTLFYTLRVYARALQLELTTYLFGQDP

Work on `O=C1CN(CCCN2CCC(Cc3ccccc3)CC2)CC[S][99Tc]2(=[O])[S]CC[N]12` (centres unmarked) [Re 99mTc-15] yielded a Tumor/Blood ratio [1] of 7.47, a Tumor/Liver ratio [1] of 0.21 and a Tumor/Lung ratio [1] of 0.31. The Tumor/Muscle ratio [1] was 3.57, the “Blood %ID/g” value ([1]; blood) was 0.44 %ID/g and the “Brain %ID/g” value ([1]; brain) was 0.48 %ID/g. For the same molecule, the “Heart %ID/g” value ([1]; heart) was 1.87 %ID/g, the “Intestine %ID/g” value ([1]; intestine) was 14.38 %ID/g and the “Kidney %ID/g” value ([1]; kidney) was 7.66 %ID/g. For the same molecule, the “Liver %ID/g” value ([1]; liver) was 10.23 %ID/g, the “Lung %ID/g” value ([1]; lung) was 15.60 %ID/g and the “Muscle %ID/g” value ([1]; muscle) was 0.90 %ID/g. The “Skin %ID/g” value ([1]; skin) was 1.21 %ID/g, the “Spleen %ID/g” value ([1]; spleen) was 5.95 %ID/g and the “Stomach %ID/g” value ([1]; stomach) was 6.81 %ID/g. The “Tumor %ID/g” value ([1]; tumor) was 3.18 %ID/g, the Tumor/Blood ratio [2] was 7.93 and the Tumor/Liver ratio [2] was 0.21. For the same molecule, the Tumor/Lung ratio [2] was 0.25, the Tumor/Muscle ratio [2] was 2.33 and the “Blood %ID/g” value ([2]; blood) was 0.31 %ID/g. For the same molecule, the “Brain %ID/g” value ([2]; brain) was 0.51 %ID/g, the “Heart %ID/g” value ([2]; heart) was 1.82 %ID/g and the “Intestine %ID/g” value ([2]; intestine) was 20.94 %ID/g. For the same molecule, the “Kidney %ID/g” value ([2]; kidney) was 7.92 %ID/g, the “Liver %ID/g” value ([2]; liver) was 12.06 %ID/g and the “Lung %ID/g” value ([2]; lung) was 9.96 %ID/g. The “Muscle %ID/g” value ([2]; muscle) was 1.06 %ID/g, the “Skin %ID/g” value ([2]; skin) was 1.76 %ID/g and the “Spleen %ID/g” value ([2]; spleen) was 7.56 %ID/g. The “Stomach %ID/g” value ([2]; stomach) was 5.26 %ID/g and the “Tumor %ID/g” value ([2]; tumor) was 2.46 %ID/g.

With `O=C1CN(CCCN2CCC(O)(c3ccc(Cl)cc3)CC2)CC[S][Re]2(=[O])[S]CC[N]12` (centres unmarked) [Re-18] the Ki [3] was 0.528 ± 0.111 µM, the Ki [4] was 2.96 µM and the “k' (pH = 7.4)” value ([5]; HPLC capacity factor at pH 7.4) was 29.7. The “k' (Max)” value ([5]; HPLC capacity factor, maximum) was 37.5, the “pKa (Corrected)” value ([5]; HPLC method, corrected with standard amines) was 7.26 and the Ki [6] was 0.98 ± 0.18 µM.

Molecule `O=C1CN(CCCN2CCC(c3ccccc3)CC2)CC[S][Re]2(=[O])[S]CC[N]12` (centres unmarked) [Re-21] has a Ki [3] of 0.0846 ± 0.0079 µM, a Ki [4] of 0.553 µM and a Ki [7] of 0.0557 ± 0.0083 µM. The Ki [6] was 0.039 ± 0.004 µM.

With `O=C(CN1CC[S][Re]2(=[O])[S]CC[N]2C(=O)C1)NC1CCN(Cc2ccccc2)CC1` (centres unmarked) [Re-22] the Ki [3] was 4.71 ± 0.986 µM and the Ki [4] was 5.51 µM.
